Results from article PMC11476552, “Synthesis and Preliminary Studies for In Vitro Biological Activity of Two New Water-Soluble Bis(thio)carbohydrazones and Their Copper(II) and Zinc(II) Complexes” (International Journal of Molecular Sciences, 2024).
Several values for one entry are separate records, joined by “and”; a condition that tells them apart may be missing. Equal values may be shown once.

Columns and labels:
[1] = Cu(II) complex formation equilibria, spectrophotometric titration at pH 2.5; assay type: physicochemical; conditions: conditional formation constant, aqueous solution, pH = 2.5, T = 298.2 K
Text: The copper(II) complexation equilibria of bis-TCH were studied by means of spectrophotometric titration of the ligand with Cu(II) in aqueous solution at pH = 2.5 and pH = 7.4. […] For this reason, in the speciation models, L identifies the ligand irrespective of its protonation state, and the charges of the complexes are omitted. […] The two bands at 237 and 318 nm, observed in the spectrum of the free ligand, decrease in absorbance upon addition of Cu(II), while the two bands at 259 and 400 nm increase.
A plot of absorbance at 280 nm vs. Cu(II)/ligand molar ratio (Figure 3, inset) quite clearly evidenced that two equivalence points are present: one at ca. 0.75 eq. and one at ca. 1.5 eq. of metal added, corresponding to the formation of [Cu3L4] and [Cu3L2] species. […] The [Cu3L4] species could have a simple structural explanation considering some peculiar characters of bis-TCH. This ligand, in fact, adds to the coordinating possibilities of the central skeleton (ONSNO) two sulfonic groups, which are deprotonated, such that they can also behave as counteranions. Moreover, both the ligands have a great affinity for Cu(II) ions, but bis-TCH is more acidic than bis-CH, and this implies that it more stably coordinates Cu(II) already at pH 2.5. It will be seen further in the discussion that in the case of bis-CH at pH = 2.5, the [CuL] species is identified, while, at the same pH, bis-TCH is able to compete more efficiently for the Cu(II) ions in solution, and the result is [Cu3L4], a species with a higher ligand/metal ratio (Figure S19).
The copper(II) complexation equilibria of bis-CH were studied by means of spectrophotometric titration at pH = 2.5 and 7.4. […] The best fit of the spectrophotometric data was obtained by considering the formation of [CuL] and [Cu2L] species, with log β values of 6.26(2) and 11.30(2), respectively (Table 2).
Samples used for the study of protonation equilibria of the ligands were prepared as follows. […] For each solution, the absorption spectrum was collected in the 220–600 nm range at 298.2 K. The spectral data collection was carried out immediately after the preparation of the samples and repeated after 3 and 10 min for all the samples at different pH values to check the stability of the ligand. […]
The logarithms of the apparent stability constants were calculated from the spectral dataset using HypSpec2014 software. […] All equilibria were studied at fixed pH, and therefore the determined log β values are logarithms of conditional formation constants. […] Speciation diagrams were calculated using the Hyss2009 software. […]

Hs27 cells = assay: Antiproliferative activity, trypan blue cell count, Hs27; assay type: cell-based; conditions: Hs27, up to 100 µg/mL, 24-72 h
Protocol: (§1) We have started to investigate the antiproliferative profile of the ligands and of the complexes C1–C4 using a normal fibroblast cell line (Hs27) and a leukaemia cell line (U937), an in vitro cell model system systematically used to validate the toxicological profile of new potential anticancer agents. For the cytotoxicity assay, we treated Hs27 and U937 cells with five different concentrations of compound, ranging from 12.5 to 100 µg/mL, for 24, 48, and 72 h.
U937 cells (ATCC, CRL-1593.2) were obtained from the American Tissue Culture Collection (Rockville, MD, USA) and were cultured in Roswell Park Memorial Institute Medium (RPMI-1640) (Euroclone, Italy); Hs27 cells (ATCC, CRL1634) were grown in DMEM. Both media were supplemented with 10% (v/v) foetal bovine serum (Euroclone, Italy), 1% L-glutamine (2 mM) (Euroclone, Italy), and 1% penicillin (100 U/mL)/streptomycin (100 µg/mL) (Euroclone, Italy), added with 10% (v/v) foetal bovine serum (Euroclone, Italy), 1% L-glutamine (2 mM) (Euroclone, Italy), and 1% penicillin (100 U/mL)/streptomycin (100 µg/mL) (Euroclone, Italy). Flasks were maintained at 37 °C and 5% CO2 in a humidified atmosphere. […]
The antiproliferative activity of the ligands and the complexes C1–C4 was evaluated in vitro on U937 and Hs27 cell lines. […] Values are reported as the mean of the GI50 calculated on two independent experiments.

U937 cells = assay: Antiproliferative activity, trypan blue cell count, U937; assay type: cell-based; conditions: for GI50: Homo sapiens, U-937, U937, 72 h
Protocol: as §1
U937 cells (ATCC, CRL-1593.2) were obtained from the American Tissue Culture Collection (Rockville, MD, USA) and were cultured in Roswell Park Memorial Institute Medium (RPMI-1640) (Euroclone, Italy); Hs27 cells (ATCC, CRL1634) were grown in DMEM. Both media were supplemented with 10% (v/v) foetal bovine serum (Euroclone, Italy), 1% L-glutamine (2 mM) (Euroclone, Italy), and 1% penicillin (100 U/mL)/streptomycin (100 µg/mL) (Euroclone, Italy), added with 10% (v/v) foetal bovine serum (Euroclone, Italy), 1% L-glutamine (2 mM) (Euroclone, Italy), and 1% penicillin (100 U/mL)/streptomycin (100 µg/mL) (Euroclone, Italy). Flasks were maintained at 37 °C and 5% CO2 in a humidified atmosphere. Cultures media were refreshed every two or three days during sub-culturing.
The antiproliferative activity of the ligands and the complexes C1–C4 was evaluated in vitro on U937 and Hs27 cell lines. In the exponential growth phase, cells were seeded at 5 × 10^4/mL into 12-well flat-bottom microplates. Cells were cultured in complete medium supplemented with 10% FBS, 1% L-glutamine, and 1% penicillin/streptomycin at 37 °C, 5% CO2. After seeding, different concentrations of compounds in the range from 0 to 100 µg/mL in a sterile 1X PBS solution were added to the wells and incubated for 24, 48, and 72 h. A negative control was obtained by treating cells with 1X PBS. To detect whether the treatments caused a defect in cell viability, following 24, 48, and 72 h treatments with the compounds, cells were stained with trypan blue (TB, 0.4%) (Gibco™, Thermofisher Scientific, Waltham, MA, USA). Two independent experiments were performed, and a Bürker chamber was used for cell counts. The GI50 value, i.e., the concentration causing a 50% reduction in the cell number in comparison with control cells, was calculated taking into account the guidelines of the US National Cancer Institute (NCI). Values are reported as the mean of the GI50 calculated on two independent experiments.

Row | Structure (SMILES) | Log β([Cu2L]) [1] | Log β([CuL]) [1] | cytotoxic effect (in words) (Hs27 cells) | GI50 (U937 cells) | cytotoxic effect (in words) (U937 cells; U937, up to 100 µg/mL, 24-72 h) | Log β([Cu3L2]) [1] | Log β([Cu3L4]) [1] | reduction in cell viability (U937 cells; U937, highest dose, 72 h)
1 | COc1cc(S(=O)(=O)[O-])cc(/C=N/NC(=O)N/N=C/c2cc(S(=O)(=O)[O-])cc(OC)c2O)c1O.[Na+].[Na+] [bis-CH, Bis-(sodium 3-methoxy-5-sulfonate-salicylaldehyde)-carbohydrazone] | 11.30(2) | 6.26(2) | did not produce a reduction in cell viability | 46.5 µg/mL and 71.8 µM | mild antiproliferative activity |  |  | 
2 | COc1cc(S(=O)(=O)[O-])cc(/C=N/NC(=S)N/N=C/c2cc(S(=O)(=O)[O-])cc(OC)c2O)c1O.[Na+].[Na+] [bis-TCH, Bis-(sodium 3-methoxy-5-sulfonate-salicylaldehyde)-thiocarbohydrazone] |  |  |  | 98 µg/mL and 144 µM |  | 26.4(1) | 38.6(1) | 50%
